Test results as given in ChEMBL document CHEMBL4808208, “Hepatoselective Dihydroquinolizinone Bis-acids for HBsAg mRNA Degradation” (ACS Med Chem Lett, 2021).
Activity calls are given as the source filed them. No cut-off for these calls is given here.

Assays:
Hepatitis B virus [1] = assay: Antiviral activity against Hepatitis B virus infected in human HepG2.2.15 cells assessed as reduction in HBsAg level measured after 4 days by AlphaLisa assay; format: functional, organism-based; conditions: HepG2.2.15, 96 h
[2] = Cytotoxicity against human HepG2.2.15 cells assessed as reduction in cell viability measured after 4 days by CellTiter-Glo reagent based assay; parameters: species or system HepG2 2.2.15; conditions: time 4 day
[3] = 1-Octanol/saturated PBS buffer distribution coefficient, logD of the compound incubated for 1 hr by LC-MS/MS analysis; format: physicochemical
[4] = Apparent permeability across apical to basolateral side in MDCK-MDR1 cells at 1 uM measured after 120 mins by LC-MS/MS analysis; format: ADME, cell-based, Canis lupus familiaris; conditions: dog
[5] = Apparent permeability across basolateral to apical side in MDCK-MDR1 cells at 1 uM measured after 120 mins by LC-MS/MS analysis; format: ADME, cell-based, Canis lupus familiaris; conditions: dog
OATP1B3 = assay: Ratio of drug uptake in HEK293 cells transfected with OATP1B3 (unknown origin) in absence of transporter inhibitor, estradiol-17beta-glucuronide to drug uptake in HEK293 cells in absence of transporter inhibitor, estradiol-17beta-glucuronide by LC-MS/MS analysis; format: ADME, cell-based; conditions: human, HEK293 cells transfected with OATP1B3 versus HEK293 cells
[6] = biological target: T1, Solute carrier organic anion transporter family member 1B3 (Homo sapiens, UniProt Q9NPD5); assay: Substrate activity at OATP1B3 (unknown origin) expressed in HEK293 cells assessed as ratio of drug uptake in absence of transporter inhibitor, estradiol-17beta-glucuronide to drug uptake in presence of transporter inhibitor, estradiol-17beta-glucuronide by LC-MS/MS analysis; format: ADME, cell-based
T1 sequence (Q9NPD5 whole entry): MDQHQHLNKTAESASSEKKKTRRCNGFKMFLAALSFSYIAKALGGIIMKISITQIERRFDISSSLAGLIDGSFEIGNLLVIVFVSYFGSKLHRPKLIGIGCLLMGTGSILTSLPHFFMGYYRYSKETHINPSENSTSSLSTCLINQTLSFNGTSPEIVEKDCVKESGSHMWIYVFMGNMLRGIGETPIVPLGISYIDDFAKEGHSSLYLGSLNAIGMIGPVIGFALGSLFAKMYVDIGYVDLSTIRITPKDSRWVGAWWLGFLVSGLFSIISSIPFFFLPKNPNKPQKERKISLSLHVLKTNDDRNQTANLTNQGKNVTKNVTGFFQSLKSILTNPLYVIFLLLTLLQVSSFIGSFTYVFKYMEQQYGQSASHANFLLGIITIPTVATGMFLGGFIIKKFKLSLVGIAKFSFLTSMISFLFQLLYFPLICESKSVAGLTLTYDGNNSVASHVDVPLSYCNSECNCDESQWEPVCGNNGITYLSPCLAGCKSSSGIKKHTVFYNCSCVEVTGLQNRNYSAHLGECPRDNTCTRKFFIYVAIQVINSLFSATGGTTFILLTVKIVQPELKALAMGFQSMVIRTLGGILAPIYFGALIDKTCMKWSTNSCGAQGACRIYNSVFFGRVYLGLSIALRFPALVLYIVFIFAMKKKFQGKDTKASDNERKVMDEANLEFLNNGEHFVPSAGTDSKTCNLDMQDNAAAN

Hepatitis B virus [7] = assay: Antiviral activity against Hepatitis B virus infected in human HepG2.2.15 cells assessed as reduction in HBV pregenomic mRNA level at 1 uM measured after 5 days by Northern blot analysis; format: functional, organism-based; conditions: time 5.0 day
[8] = biological target: Terminal nucleotidyltransferase 4B (Homo sapiens) (UniProt Q8NDF8); assay: Inhibition of Myc-DDK-tagged human PAPD5 expressed in HEK293 cells assessed as inhibition of poly-adenylation reaction using P32-labeled RNA oligonucleotides (5'-GCCUUUCAUCUCUAACUGCGAAAAAAAAAA-3') as substrate measured for 20 mins by phosphor imaging analysis; conditions: dose 0.37-10 µM
Terminal nucleotidyltransferase 4B (Homo sapiens), sequence (Q8NDF8 whole entry): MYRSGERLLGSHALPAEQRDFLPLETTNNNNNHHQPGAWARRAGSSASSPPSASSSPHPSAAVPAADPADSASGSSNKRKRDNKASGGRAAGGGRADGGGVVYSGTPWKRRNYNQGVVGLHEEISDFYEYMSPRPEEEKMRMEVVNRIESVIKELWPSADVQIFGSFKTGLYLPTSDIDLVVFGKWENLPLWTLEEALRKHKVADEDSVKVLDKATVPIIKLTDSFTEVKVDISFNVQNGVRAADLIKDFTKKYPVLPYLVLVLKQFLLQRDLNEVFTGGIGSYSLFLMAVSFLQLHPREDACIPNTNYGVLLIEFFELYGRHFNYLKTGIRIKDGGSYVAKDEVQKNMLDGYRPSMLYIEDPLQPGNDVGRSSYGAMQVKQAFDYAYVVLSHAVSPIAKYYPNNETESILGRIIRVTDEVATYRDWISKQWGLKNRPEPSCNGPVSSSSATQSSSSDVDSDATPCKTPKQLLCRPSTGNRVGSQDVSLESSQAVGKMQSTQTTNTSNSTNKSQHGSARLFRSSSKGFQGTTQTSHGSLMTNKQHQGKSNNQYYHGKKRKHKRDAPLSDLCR

[9] = biological target: Terminal nucleotidyltransferase 4A (Homo sapiens) (UniProt Q5XG87); assay: Inhibition of human PAPD7 expressed in HEK293 cells assessed as inhibition of poly-adenylation reaction using P32-labeled RNA oligonucleotides (5'-GCCUUUCAUCUCUAACUGCGAAAAAAAAAA-3') as substrate measured for 3 hrs by phosphor imaging analysis; format: cell-based; conditions: dose 0.37-10 µM
Terminal nucleotidyltransferase 4A (Homo sapiens), sequence (Q5XG87 whole entry): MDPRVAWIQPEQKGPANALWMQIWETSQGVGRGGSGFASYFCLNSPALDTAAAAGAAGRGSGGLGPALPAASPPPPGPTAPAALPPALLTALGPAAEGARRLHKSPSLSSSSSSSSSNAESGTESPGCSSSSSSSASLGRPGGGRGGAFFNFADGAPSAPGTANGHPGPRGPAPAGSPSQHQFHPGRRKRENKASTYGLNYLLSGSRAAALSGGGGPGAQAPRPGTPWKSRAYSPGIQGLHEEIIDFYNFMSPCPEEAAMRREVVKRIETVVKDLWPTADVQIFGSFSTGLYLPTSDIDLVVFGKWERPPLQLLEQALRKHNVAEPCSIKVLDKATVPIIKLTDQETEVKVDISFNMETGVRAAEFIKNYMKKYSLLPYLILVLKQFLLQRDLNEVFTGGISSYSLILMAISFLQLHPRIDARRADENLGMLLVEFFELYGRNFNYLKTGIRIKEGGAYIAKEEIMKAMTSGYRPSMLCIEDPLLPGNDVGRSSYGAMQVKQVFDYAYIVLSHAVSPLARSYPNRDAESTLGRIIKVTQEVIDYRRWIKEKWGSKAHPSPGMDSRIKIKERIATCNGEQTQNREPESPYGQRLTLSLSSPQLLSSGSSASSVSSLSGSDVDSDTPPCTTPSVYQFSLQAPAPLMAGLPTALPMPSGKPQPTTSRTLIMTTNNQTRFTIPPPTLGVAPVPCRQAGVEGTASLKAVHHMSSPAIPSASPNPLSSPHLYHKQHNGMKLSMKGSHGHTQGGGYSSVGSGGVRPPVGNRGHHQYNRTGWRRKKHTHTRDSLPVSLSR

[10] = Efflux ratio of apparent permeability in MDCK-MDR1 cells at 1 uM after 120 mins by LC-MS/MS analysis; format: ADME, cell-based, Canis lupus familiaris; conditions: dog
Hepatitis B virus [11] = assay: Antiviral activity against Hepatitis B virus infected in human HepG2.2.15 cells assessed as reduction in HBV subgenomic 2.4/2.1 kb mRNA level at 1 uM measured after 5 days by Northern blot analysis; format: functional, organism-based; conditions: time 5.0 day
[12] = biological target: T2, Solute carrier organic anion transporter family member 1B1 (Homo sapiens, UniProt Q9Y6L6); assay: Substrate activity at OATP1B1 (unknown origin) expressed in HEK293 cells assessed as ratio of drug uptake in absence of transporter inhibitor,estradiol-17beta-glucuronide to drug uptake in presence of transporter inhibitor, estradiol-17beta-glucuronide by LC-MS/MS analysis; format: ADME, cell-based
T2 sequence (Q9Y6L6 whole entry): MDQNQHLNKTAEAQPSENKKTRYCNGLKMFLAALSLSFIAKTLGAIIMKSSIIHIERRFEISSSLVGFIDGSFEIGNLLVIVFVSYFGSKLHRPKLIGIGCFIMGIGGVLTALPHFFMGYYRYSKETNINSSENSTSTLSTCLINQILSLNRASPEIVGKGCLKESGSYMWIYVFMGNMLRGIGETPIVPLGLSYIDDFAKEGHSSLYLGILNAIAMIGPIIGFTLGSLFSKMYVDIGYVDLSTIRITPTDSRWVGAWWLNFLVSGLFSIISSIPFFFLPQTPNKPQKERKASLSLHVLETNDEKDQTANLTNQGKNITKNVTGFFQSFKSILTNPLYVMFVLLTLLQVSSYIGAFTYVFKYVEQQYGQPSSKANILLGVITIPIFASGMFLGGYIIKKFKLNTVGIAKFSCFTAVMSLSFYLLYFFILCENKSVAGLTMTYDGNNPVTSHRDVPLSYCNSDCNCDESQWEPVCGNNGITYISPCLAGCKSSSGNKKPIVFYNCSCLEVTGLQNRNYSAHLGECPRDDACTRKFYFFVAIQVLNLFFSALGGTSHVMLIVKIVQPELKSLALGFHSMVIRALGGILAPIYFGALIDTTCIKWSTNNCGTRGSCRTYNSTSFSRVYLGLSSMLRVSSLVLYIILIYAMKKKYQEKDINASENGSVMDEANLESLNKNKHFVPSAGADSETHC

OATP1B1 = assay: Ratio of drug uptake in HEK293 cells transfected with OATP1B1 (unknown origin) in absence of transporter inhibitor, estradiol-17beta-glucuronide to drug uptake in HEK293 cells in absence of transporter inhibitor, estradiol-17beta-glucuronide by LC-MS/MS analysis; format: ADME, cell-based; conditions: human, HEK293 cells transfected with OATP1B1 versus HEK293 cells

EC50 (Hepatitis B virus [1]) [nM] | logD at 1 h [3] | Compound | CC50 at 96 h [2] [nM] | other results
> 10000 | – | COc1cc2c(cc1OCC(=O)O)C[C@@H](C(C)C)n1cc(C(=O)O)c(=O)cc1-2 | > 10000 | –
87 | – | COc1cc2c(cc1OCCCCCC(=O)O)C[C@@H](C(C)C)n1cc(C(=O)O)c(=O)cc1-2 | > 10000 | –
1.8 | 1.39 | COCCCOc1cc2c(cc1OC)-c1cc(=O)c(C(=O)O)cn1[C@H](C(C)C)C2 | > 10000 | Papp A→B at 2 h, 1 µM [4]: 9.17 ×10⁻⁶ cm/s; Papp B→A at 2 h, 1 µM [5]: 35.8 ×10⁻⁶ cm/s; uptake ratio (OATP1B3): 0.56; Ratio [6]: 0.42; Activity (Hepatitis B virus [7]): Active; inhibition [8]: Dose-Dependent Effect; inhibition [9]: Dose-Dependent Effect; efflux ratio at 2 h, 1 µM [10]: 3.9; Activity (Hepatitis B virus [11]): Active; Ratio [12]: 0.38; uptake ratio (OATP1B1): 0.71
1010 | – | COc1cc2c(cc1OCCCC(=O)O)C[C@@H](C(C)C)n1cc(C(=O)O)c(=O)cc1-2 | > 10000 | –
2780 | – | COc1cc2c(cc1OCCCOCC(=O)O)C[C@@H](C(C)C)n1cc(C(=O)O)c(=O)cc1-2 | > 10000 | –
4.6 | 0.7 | COc1cc2c(cc1OCCCCCCCCC(=O)O)C[C@@H](C(C)C)n1cc(C(=O)O)c(=O)cc1-2 | > 10000 | –
380 | – | COc1cc2c(cc1OCCCCC(=O)O)C[C@@H](C(C)C)n1cc(C(=O)O)c(=O)cc1-2 | > 10000 | –
7.6 | 0.07 | COc1cc2c(cc1OCCCCCCCC(=O)O)C[C@@H](C(C)C)n1cc(C(=O)O)c(=O)cc1-2 | > 10000 | –
